These are literature values, as cited in patent US20230414783A1, “Biliary Delivery Methods, Compositions and Kits for Use Therein” (AMBYS MEDICINES, INC., priority 2020, published 2023).

The series relates to lysyl oxidase (LOX) family enzymes. Conditions: subcutaneous injection or intravenous infusion; human subjects.

In the case of `Cc1cc(F)c(C(=O)Nc2cccc(-c3nncn3C(C)C)n2)cc1-n1cnc(C2CC2)c1` [selonsertib], the clinical efficacy result was “did not demonstrate clinical efficacy”.
